Tests used:
Format in all cases: cell-based
PTGER4 (EP4) = molecular target: T1, PTGER4 (EP4) (Homo sapiens, UniProt P35408); assay: hEP4 b-Arrestin Assay (PathHunter HEK 293 PTGER4 b-arrestin cells, PGE2 20 nM); conditions: antagonistic activity, beta-arrestin assay, HEK 293 PTGER4 cells, PGE2 20 nM (EC80); read-out: hEP4 b-arr IC50
T1 construct: host or cells: HEK 293 (PathHunter, stably transfected)
Experimental: The antagonistic activities of the compounds of formula (I) on the EP2 and EP4 receptors are also determined in accordance with the following experimental method.
The assay is using the PathHunter™ HEK 293 PTGER2 and PTGER4 b-arrestin cell lines from DiscoverX. The system is based on the Enzyme Fragment Complementation Technology. Two complementing fragments of the b-galactosidase enzyme are expressed within stably transfected cells. The larger portion of b-gal, termed EA for Enzyme Acceptor, is fused to the C-terminus of b-arrestin 2. The smaller fragment, termed ProLink™ tag, is fused to PTGER2 (EP2) or PTRGER4 (EP4) at the C-terminus. Upon activation, b-arrestin is recruited which forces the interaction of ProLink and EA, allowing complementation of the two fragments of b-gal and the formation of a functional enzyme which is capable of hydrolysing the substrate and generating a chemiluminescent signal.
The HEK 293 PTGER4 b-arrestin cells (DiscoverX 93-030-4C1) are detached from culture dishes with a cell dissociation buffer (Invitrogen, 13151-014), and collected in growing medium (GM: DMEM+Glutamax-I (Invitrogen 32430)/10% FCS, 1% Penicilin/streptomycin). 5000 cells per well of a 384 well plate (white with white bottom Greiner 781080) are seeded in 20 ul per well of GM. Plate is incubated at 37° C., 5% CO2 for 24 hours.
Stock solutions of test compounds are made at a concentration of 10 mM in DMSO, and serially diluted in DMSO to concentrations required for inhibition dose response curves (tested concentration range 10 μM-2 nM or 1 μM-0.2 nM).
PGE2 (Cayman 14010, stock solution: 100 μM in DMSO) is used as agonist at 20 nM final concentration, corresponding to EC80.
Five microliters of diluted compounds are transferred into the assay plate. Plate is pre-incubated 15 minutes at 37° C. Then five microliters of PGE2 (final conc. 20 nM) are transferred into the assay plate. Plate is incubated 120 minutes at 37° C.
PathHunter Glo Detection Kit components are thawed and mix according to manufacturer's instructions: 1 part Galacton Star Substrate with 5 parts Emerald II™ Solution, and 19 parts of PathHunter Cell Assay Buffer, respectively. Twelve μl of reagent are transferred to the assay plate and incubate for 1 hour at room temperature in the dark. Luminescence counts are read on a BMG Fluostar Optima reader according to manufacturer's instructions.
For each compound concentration calculate of the percentage of activity compared to DMSO control value as average ±STDEV. (each concentration is measured in duplicate)
IC50 values and curves are generated with XLfit software (IDBS) using Dose-Response One Site model 203. When compounds were measured multiple times, mean values are given.

PTGER2 (EP2) = molecular target: T2, PTGER2 (EP2) (Homo sapiens, UniProt P43116); assay: hEP2 b-Arrestin Assay (PathHunter HEK 293 PTGER2 b-arrestin cells, PGE2 5 μM); conditions: antagonistic activity, beta-arrestin assay, HEK 293 PTGER2 cells, PGE2 5 μM (EC80); read-out: hEP2 b-arr IC50
T2 construct: host or cells: HEK 293 (PathHunter, stably transfected)
T2 sequence (P43116 whole entry): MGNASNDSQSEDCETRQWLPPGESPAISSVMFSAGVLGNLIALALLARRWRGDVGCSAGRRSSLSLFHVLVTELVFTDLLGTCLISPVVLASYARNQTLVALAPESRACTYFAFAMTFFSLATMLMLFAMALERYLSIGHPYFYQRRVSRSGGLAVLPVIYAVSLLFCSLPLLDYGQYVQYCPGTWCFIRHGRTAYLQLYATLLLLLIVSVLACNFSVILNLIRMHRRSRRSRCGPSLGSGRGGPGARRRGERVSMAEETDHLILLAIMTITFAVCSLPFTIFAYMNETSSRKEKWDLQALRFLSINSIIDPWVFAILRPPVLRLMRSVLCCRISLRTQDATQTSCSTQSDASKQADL
Summary of the method: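 PathHunter enzyme-fragment complementation in HEK 293 cells: compounds (10 μM-2 nM or 1 μM-0.2 nM) pre-incubated 15 min at 37 °C, then 5 μM PGE2 (EC80) for 120 min at 37 °C. Chemiluminescence read after 1 h detection; IC50 from duplicate dose-response fits, means of repeats.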

EP2 = molecular target: T3, EP2 (Homo sapiens, UniProt P43116); assay: hEP2 cAMP Assay (SF295 glioblastoma cells, HTRF cAMP, PGE2 75 nM); conditions: antagonistic activity, PGE2 75 nM (EC80)
T3 construct: SF295 glioblastoma cells express high endogenous EP2 and no EP4; host or cells: SF295 glioblastoma cells
T3 sequence (P43116 whole entry): as above
Summary of the method: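 IC50 values derive from duplicate-point curves of percent cAMP relative to DMSO, read by HTRF (665/620 nm) against a cAMP calibrator. Compounds (30 μM to 0.01 nM ranges) were given 45 min at room temperature before 30 min with 75 nM PGE2, in EP2-only SF295 cells with 2 mM IBMX.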

EP4 = molecular target: T4, EP4 (Homo sapiens, UniProt P35408); assay: hEP4 cAMP Assay (BT549 breast cancer cells, HTRF cAMP, PGE2 6 nM); conditions: antagonistic activity, PGE2 6 nM (EC80)
T4 construct: BT549 breast cancer cells, express high endogenous EP4 levels and very low EP2 levels; host or cells: BT549 breast cancer cells
T4 sequence (P35408 whole entry): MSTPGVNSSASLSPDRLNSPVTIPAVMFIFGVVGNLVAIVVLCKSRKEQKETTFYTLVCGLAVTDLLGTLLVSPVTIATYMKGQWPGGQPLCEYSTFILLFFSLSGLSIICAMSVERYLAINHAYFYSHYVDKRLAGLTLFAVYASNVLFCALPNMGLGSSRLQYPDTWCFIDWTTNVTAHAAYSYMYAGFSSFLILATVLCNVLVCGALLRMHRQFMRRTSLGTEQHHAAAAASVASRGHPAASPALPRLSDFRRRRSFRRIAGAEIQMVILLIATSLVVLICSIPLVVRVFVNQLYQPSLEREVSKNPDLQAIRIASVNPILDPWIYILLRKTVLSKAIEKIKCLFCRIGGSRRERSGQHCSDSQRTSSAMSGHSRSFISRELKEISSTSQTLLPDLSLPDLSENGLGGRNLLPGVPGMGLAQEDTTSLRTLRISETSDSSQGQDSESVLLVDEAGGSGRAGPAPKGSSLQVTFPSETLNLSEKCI
Summary of the method: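 BT549 cells (endogenous EP4, very low EP2) in HBSS/20 mM HEPES/0.2% BSA/2 mM IBMX, pre-incubated 45 min RT with compound, then stimulated 30 min RT with PGE2 6 nM (EC80). cAMP read by HTRF competitive immunoassay (665/620 nm), converted via calibrator to % of DMSO control; IC50 from duplicate dose-response curves.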

T1 sequence (P35408 whole entry): as above

| Compound | IC50 (PTGER4 (EP4)) [nM] | IC50 (PTGER2 (EP2)) [nM] | IC50 (EP2) [nM] | IC50 (EP4) [nM] |
| --- | --- | --- | --- | --- |
| CSc1cc(-c2cc(NCCc3ccc(Br)c4ccn(C)c34)ncn2)ccc1C(=O)O [Example 169, 4-{6-[2-(4-Bromo-1-methyl-1H-indol-7-yl)-ethylamino]-pyrimidin-4-yl}-2-methylsulfanyl-benzoic acid] | 350 | 230 | – | – |
| COc1ccc2ccn(C)c2c1CCNc1cc(-c2ccc(C(=O)O)c(SC)c2)ncn1 [Example 168, 4-{6-[2-(6-Methoxy-1-methyl-1H-indol-7-yl)-ethylamino]-pyrimidin-4-yl}-2-methylsulfanyl-benzoic acid] | 108 | 93 | – | – |
| CCOc1cc(-c2cc(NCCc3c(OC)ccc4c3ccn4C)ncn2)ccc1CC(=O)O [Example 167, (2-Ethoxy-4-{6-[2-(5-methoxy-1-methyl-1H-indol-4-yl)-ethylamino]-pyrimidin-4-yl}-phenyl)-acetic acid] | 758 | 69 | – | – |
| CCOc1cc(-c2cc(NCCc3ccc(Br)c4ccn(C)c34)ncn2)ccc1CC(=O)O [Example 161, (4-{6-[2-(4-Bromo-1-methyl-1H-indol-7-yl)-ethylamino]-pyrimidin-4-yl}-2-ethoxy-phenyl)-acetic acid] | 363 | 628 | – | – |
| CCOc1cc(-c2cc(NCCc3c(Br)cc(F)c4ccccc34)ncn2)ccc1C(=O)O [Example 181, 4-{6-[2-(2-Bromo-4-fluoro-naphthalen-1-yl)-ethylamino]-pyrimidin-4-yl}-2-ethoxy-benzoic acid] | 887 | 962 | – | – |
| COc1ccc2c(ccn2C)c1CCNc1cc(-c2ccc(C(=O)O)c(SC)c2)ncn1 [Example 175, 4-{6-[2-(5-Methoxy-1-methyl-1H-indol-4-yl)-ethylamino]-pyrimidin-4-yl}-2-methylsulfanyl-benzoic acid] | 245 | 3 | – | – |
| CCOc1cc(-c2cc(NCCc3ccc(Br)c4ccn(C)c34)ncn2)ccc1C(=O)O [Example 180, 4-{6-[2-(4-Bromo-1-methyl-1H-indol-7-yl)-ethylamino]-pyrimidin-4-yl}-2-ethoxy-benzoic acid] | 235 | 441 | – | – |
| CSc1cc(-c2cc(NCCc3c(Br)cc(F)c4ccccc34)ncn2)ccc1C(=O)O [Example 170, 4-{6-[2-(2-Bromo-4-fluoro-naphthalen-1-yl)-ethylamino]-pyrimidin-4-yl}-2-methylsulfanyl-benzoic acid] | 407 | 474 | – | – |
| CSc1cc(-c2cc(NCCc3c(C)ccc4c3ccn4C)ncn2)ccc1C(=O)O [Example 176, 4-{6-[2-(1,5-Dimethyl-1H-indol-4H)-ethylamino]-pyrimidin-4-yl}-2-methylsulfanyl-benzoic acid] | 550 | 3 | – | – |
| CCOc1cc(-c2cc(NCCc3c(OC)ccc4c3ccn4C)ncn2)ccc1C(=O)O [Example 186, 2-Ethoxy-4-{6-[2-(5-methoxy-1-methyl-1H-indol-4-yl)-ethylamino]-pyrimidin-4-yl}-benzoic acid] | 500 | 9 | – | – |
| CCOc1cc(-c2cc(NCCc3c(OC)ccc4sccc34)ncn2)ccc1C(=O)O [Example 185, 2-Ethoxy-4-{6-[2-(5-methoxy-benzo[b]thiophen-4-yl)-ethylamino]-pyrimidin-4-yl}-benzoic acid] | 200 | 14 | – | – |
| CCOc1cc(-c2cc(NCCc3c(OC)ccc4sccc34)ncn2)ccc1CC(=O)O [Example 166, (2-Ethoxy-4-{6-[2-(5-methoxy-benzo[b]thiophen-4-yl)-ethylamino]-pyrimidin-4-yl}-phenyl)-acetic acid] | 216 | 51 | – | – |
| CCOc1cc(-c2cc(NCCc3cccc4c(F)cccc34)ncn2)ccc1C(=O)O [Example 183, 2-Ethoxy-4-{6-[2-(5-fluoro-naphthalen-1-yl)-ethylamino]-pyrimidin-4-yl}-benzoic acid] | 701 | 60 | – | – |
| CCOc1cc(-c2cc(NCCc3c(OC)ccc4ccccc34)ncn2)ccc1-c1noc(=S)[nH]1 [Example 189, 3-(2-Ethoxy-4-{6-[2-(2-methoxy-naphthalen-1-yl)-ethylamino]-pyrimidin-4-yl}-phenyl)-[1,2,4]-oxadiazole-5(4H)-thione] | 16 | 5 | – | – |
| CCOc1ccc2sccc2c1CCNc1cc(-c2ccc(C(=O)O)c(SC)c2)ncn1 [Example 177, 4-{6-[2-(5-Ethoxy-benzo[b]thiophen-4-yl)-ethylamino]-pyrimidin-4-yl}-2-methylsulfanyl-benzoic acid] | 334 | 4 | – | – |
| CCOc1cc(-c2cc(NCCc3cc(F)cc4sccc34)ncn2)ccc1CC(=O)O [Example 165, (2-Ethoxy-4-{6-[2-(6-fluoro-benzo[b]thiophen-4-yl)-ethylamino]-pyrimidin-4-yl}-phenyl)-acetic acid] | 555 | 864 | – | – |
| COc1ccc2sccc2c1CCNc1cc(-c2ccc(C(=O)O)c(SC)c2)ncn1 [Example 174, 4-{6-[2-(5-Methoxy-benzo[b]thiophen-4-yl)-ethylamino]-pyrimidin-4-yl}-2-methylsulfanyl-benzoic acid] | 298 | 8 | – | – |
| CSc1cc(-c2cc(NCCc3cccc4c(F)cccc34)ncn2)ccc1C(=O)O [Example 172, 4-{6-[2-(5-Fluoro-naphthalen-1-yl)-ethylamino]-pyrimidin-4-yl}-2-methylsulfanyl-benzoic acid] | 605 | 45 | – | – |
| CCOc1cc(-c2cc(NCCc3c(OC)ccc4c(OC)cccc34)ncn2)sc1C(=O)O [Example 53, 5-{6-[2-(2,5-Dimethoxy-naphthalen-1-yl)-ethylamino]-pyrimidin-4-yl}-3-ethoxy-thiophene-2-carboxylic acid] | 5 | – | 305 | 17 |
| CCOc1cc(-c2cc(NCCc3ccc(Br)c4ccccc34)ncn2)ccc1CC(=O)O [Example 162, (4-{6-[2-(4-Bromo-naphthalen-1-yl)-ethylamino]-pyrimidin-4-yl}-2-ethoxy-phenyl)-acetic acid] | 114 | 219 | – | – |
| CCOc1cc(-c2cc(NCCc3ccc(C)c4ccccc34)ncn2)ccc1CC(=O)O [Example 99, (2-Ethoxy-4-{6-[2-(4-methyl-naphthalen-1-yl)-ethylamino]-pyrimidin-4-yl}-phenyl)-acetic acid] | 177 | – | 765 | 225 |
| CCOc1cc(-c2cc(NCCc3c(OCC)ccc4sccc34)ncn2)ccc1C(=O)O [Example 187, 2-Ethoxy-4-{6-[2-(5-ethoxy-benzo[b]thiophen-4-yl)-ethylamino]-pyrimidin-4-yl}-benzoic acid] | 563 | 10 | – | – |
| CCOc1cc(-c2cc(NCCc3ccc(C)c4ccccc34)ncn2)ccc1OCC(=O)O [Example 76, (2-Ethoxy-4-{6-[2-(4-methyl-naphthalen-1-yl)-ethylamino]-pyrimidin-4-yl}-phenoxy)-acetic acid] | 66 | – | 259 | 116 |

Reference: patent publication US11446298B2, “Pyrimidine derivatives” (Idorsia Pharmaceuticals Ltd, priority 2017, dated 2022)
